In series [1] the target is T1, muscarinic M3 receptor (Homo sapiens, UniProt P20309).
T1 construct: expressed in transfected cells
Nature of the series: R-SAT functional screen, M3. It is filed as cell-based. An excerpt:
The term “modulate” refers to the ability of a compound disclosed herein to alter the function of a muscarinic receptor. A modulator may activate the activity of a muscarinic receptor, may activate or inhibit the activity of a muscarinic receptor depending on the concentration of the compound exposed to the muscarinic receptor, or may inhibit the activity of a muscarinic receptor. The term “modulate” also refers to altering the function of a muscarinic receptor by increasing or decreasing the probability that a complex forms between a muscarinic receptor and a natural binding partner. A modulator may increase the probability that such a complex forms between the muscarinic receptor and the natural binding partner, may increase or decrease the probability that a complex forms between the muscarinic receptor and the natural binding partner depending on the concentration of the compound exposed to the muscarinic receptor, and or may decrease the probability that a complex forms between the muscarinic receptor and the natural binding partner. In some embodiments, modulation of the muscarinic receptor may be assessed using Receptor Selection and Amplification Technology (R-SAT) as described in U.S. Pat. No. 5,707,798, the disclosure of which is incorporated herein by reference in its entirety.
Several compounds disclosed herein were evaluated for activity at muscarinic receptors using Receptor Selection and Amplification Technology (R-SAT) as described in U.S. Pat. No. 5,707,798, the disclosure of which is incorporated herein by reference in its entirety. The efficacy (eff) and potency (expressed as pEC50) of these compounds are presented in Table 1 at M1, M2, and M3 receptors.

Series [2] addresses T2, muscarinic M1 receptor (Homo sapiens, UniProt P11229).
T2 construct: expressed in transfected cells
T2 sequence (P11229 1-460): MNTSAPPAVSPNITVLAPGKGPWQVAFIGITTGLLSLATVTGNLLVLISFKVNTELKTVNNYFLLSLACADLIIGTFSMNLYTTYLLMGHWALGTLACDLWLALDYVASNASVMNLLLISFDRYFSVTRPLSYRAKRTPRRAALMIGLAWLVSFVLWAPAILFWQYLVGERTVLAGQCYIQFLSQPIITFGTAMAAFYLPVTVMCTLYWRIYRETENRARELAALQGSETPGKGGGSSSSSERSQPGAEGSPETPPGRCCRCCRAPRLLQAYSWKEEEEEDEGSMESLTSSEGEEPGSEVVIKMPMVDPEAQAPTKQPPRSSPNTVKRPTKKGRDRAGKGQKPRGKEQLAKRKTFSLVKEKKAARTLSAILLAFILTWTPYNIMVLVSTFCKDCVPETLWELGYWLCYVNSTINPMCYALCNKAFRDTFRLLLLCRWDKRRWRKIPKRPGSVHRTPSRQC
Nature of the series: R-SAT functional screen, M1. It is filed as cell-based. To be noted: R-SAT; for Emax: read-out: M1 eff (efficacy); for EC50: read-out: M1 pEC50 (converted). The gist of the method: (§1)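 Receptor Selection and Amplification Technology (R-SAT) functional cell assay at M1, M2, M3 receptors. Values reported as efficacy (eff) and potency as pEC50.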

For series [3], the target named is T3, muscarinic M2 receptor (Homo sapiens, UniProt P08172).
T3 construct: expressed in transfected cells
T3 sequence (P08172 1-466): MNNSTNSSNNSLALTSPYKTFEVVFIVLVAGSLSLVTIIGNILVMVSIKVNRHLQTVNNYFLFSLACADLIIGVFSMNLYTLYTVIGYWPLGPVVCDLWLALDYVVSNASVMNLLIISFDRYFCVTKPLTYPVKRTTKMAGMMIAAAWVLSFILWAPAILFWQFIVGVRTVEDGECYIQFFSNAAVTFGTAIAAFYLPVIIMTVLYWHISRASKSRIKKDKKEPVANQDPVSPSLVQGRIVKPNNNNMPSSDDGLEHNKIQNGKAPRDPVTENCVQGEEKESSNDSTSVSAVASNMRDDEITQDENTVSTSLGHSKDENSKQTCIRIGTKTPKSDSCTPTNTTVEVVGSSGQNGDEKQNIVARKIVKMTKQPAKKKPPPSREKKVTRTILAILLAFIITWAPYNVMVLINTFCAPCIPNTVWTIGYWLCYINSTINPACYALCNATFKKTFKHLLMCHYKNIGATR
Nature of the series: R-SAT functional screen, M2. It counts as cell-based. To be noted: R-SAT; for Emax: read-out: M2 eff (efficacy); for EC50: read-out: M2 pEC50 (converted). In a few lines:
as §1

The target in series [4] is T4, M1 receptor (Homo sapiens, UniProt P11229).
T4 sequence (P11229 1-460): T2 sequence (P11229 1-460)
The experiment in a line: Receptor profile, M1 agonist activity. The following applies: for Emax: read-out: M1 intrinsic activity %.

Series [5] deals with hyperactivity induced by MK-801. Nature of the series: MK-801 induced hyperactivity mouse model. To be noted: mice, salts of the compounds. It counts as in vivo. The procedure:
(§2) Five of the compounds listed in Table 2 were tested in an in vivo assay predictive of antipsychotic activity. Salts of these compounds where administered to mice having hyperactivity induced by amphetamine or MK-801 administration. The compounds were administered both subcutaneously (sc) and orally (po).

Series [6] has as its target 5-HT2A receptor (Homo sapiens, UniProt P28223). Nature of the series: Receptor profile, 5-HT2A inverse agonism. It is filed as cell-based. The following applies: negative log of the inhibitory IC50 (inverse agonism); read-out: 5-HT2A pIEC50 (converted).
The target of series [7] is D2 receptor (Homo sapiens, UniProt P14416). The experiment in a line: Receptor profile, D2 agonist activity. To be noted: for Emax: read-out: D2 intrinsic activity %.
In series [8] the test system is novel object recognition. Nature of the series: Novel object recognition (NOR) assay. It is filed as in vivo. The following applies: mice; for NOR - 60 minutes post training / NOR - 120 minutes post training: dose approx. ID75 in MK-801 hyperactivity assay. As to the method: Salts of the compounds were administered to mice at one hour post-training (a time-point at which animals normally behaviorally discriminate between novel and familiar objects) and two hours post-training (a time-point at which these animals normally no longer discriminate between objects). Doses were selected to correspond to the approximate ID75 value in the MK-801 hyperactivity assay.

Series [9] concerns hyperactivity induced by amphetamine. The experiment in a line: Amphetamine induced hyperactivity mouse model. The following applies: mice, salts of the compounds. It is filed as in vivo. The procedure: as §2
A short description of series [10]: Ames mutagenesis assay. It is filed as cell-based. For orientation: In the Ames test, an excess of revertant colonies over the control signals mutagenicity.

T1 sequence (P20309 whole entry): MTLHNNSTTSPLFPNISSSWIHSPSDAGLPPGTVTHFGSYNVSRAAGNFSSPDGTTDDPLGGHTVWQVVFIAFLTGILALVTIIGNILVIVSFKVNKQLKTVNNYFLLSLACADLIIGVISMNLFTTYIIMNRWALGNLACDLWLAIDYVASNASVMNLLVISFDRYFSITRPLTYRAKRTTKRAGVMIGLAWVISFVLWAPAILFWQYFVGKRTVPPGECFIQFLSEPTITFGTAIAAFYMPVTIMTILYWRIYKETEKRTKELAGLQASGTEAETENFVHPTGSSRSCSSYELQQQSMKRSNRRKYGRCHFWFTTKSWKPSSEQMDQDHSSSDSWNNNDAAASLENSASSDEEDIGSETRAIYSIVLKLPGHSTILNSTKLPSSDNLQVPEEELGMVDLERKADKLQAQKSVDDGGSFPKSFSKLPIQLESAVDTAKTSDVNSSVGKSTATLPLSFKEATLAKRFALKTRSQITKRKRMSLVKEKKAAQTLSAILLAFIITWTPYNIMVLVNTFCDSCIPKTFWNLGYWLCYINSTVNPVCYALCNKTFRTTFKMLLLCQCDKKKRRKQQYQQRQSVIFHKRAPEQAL
Chain of 5-HT2A receptor (P28223 whole entry): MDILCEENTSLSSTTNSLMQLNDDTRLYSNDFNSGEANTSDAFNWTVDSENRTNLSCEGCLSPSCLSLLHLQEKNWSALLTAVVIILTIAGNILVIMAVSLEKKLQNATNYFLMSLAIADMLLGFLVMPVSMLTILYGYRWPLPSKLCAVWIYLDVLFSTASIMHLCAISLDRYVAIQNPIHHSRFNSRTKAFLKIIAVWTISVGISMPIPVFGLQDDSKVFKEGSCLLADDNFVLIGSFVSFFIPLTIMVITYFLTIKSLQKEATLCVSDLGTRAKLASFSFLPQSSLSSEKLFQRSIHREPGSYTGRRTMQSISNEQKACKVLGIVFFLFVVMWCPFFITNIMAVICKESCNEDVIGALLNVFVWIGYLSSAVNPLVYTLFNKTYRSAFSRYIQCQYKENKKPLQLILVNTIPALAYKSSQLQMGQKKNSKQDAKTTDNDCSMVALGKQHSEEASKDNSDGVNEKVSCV
Chain of D2 receptor (P14416 whole entry): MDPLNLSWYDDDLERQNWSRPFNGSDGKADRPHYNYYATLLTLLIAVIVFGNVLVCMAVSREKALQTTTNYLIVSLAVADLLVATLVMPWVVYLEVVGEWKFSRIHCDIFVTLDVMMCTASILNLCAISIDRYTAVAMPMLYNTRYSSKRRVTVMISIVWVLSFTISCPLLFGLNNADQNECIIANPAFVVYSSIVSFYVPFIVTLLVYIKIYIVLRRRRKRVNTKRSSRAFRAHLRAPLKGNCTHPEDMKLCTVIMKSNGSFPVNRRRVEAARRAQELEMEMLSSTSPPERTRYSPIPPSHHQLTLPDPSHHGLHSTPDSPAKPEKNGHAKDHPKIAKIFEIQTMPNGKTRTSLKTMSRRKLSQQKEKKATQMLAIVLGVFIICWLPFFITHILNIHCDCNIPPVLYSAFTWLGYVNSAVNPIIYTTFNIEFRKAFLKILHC

Take `Clc1ccc2c(c1)N=C(N1CCNCC1)c1cccc(Cl)c1N2` [4,8-Dichloro-11-(piperazin-1-yl)-5H-dibenzo[b,e][1,4]diazepine]: the “M3 eff (efficacy)” value in series [1] was found to be 44. Besides, the EC50 in [1] (read-out: M3 pEC50 (converted)) is 158 nM; in series [2], 63.1 nM; in series [3], 1000 nM. In addition, the Emax in series [2] is 78%; in series [3] it was 118%.

Regarding `Cc1cccc2c1Oc1ccc(C(F)(F)F)cc1N=C2N1CCNCC1` [4-Methyl-11-(piperazin-1-yl)-8-trifluoromethyl-dibenzo[b,f][1,4]oxazepine], in series [4], the EC50 was 316 nM and the Emax turned out to be 52%. Besides, the “MK-801 model (ID50 mg/kg sc)” value in [5] is listed as over 10 mg/kg. Moreover, the IC50 in [6] was 2510 nM. Moreover, in series [3], the Emax was determined as 75% and the EC50 is 794 nM. In series [7] (devoid of agonist activity), the “D2 intrinsic activity, in words” value is listed as “antagonist”.

Consider `Clc1cccc2c1C(N1CCNCC1)=Nc1cc(Br)ccc1N2` [8-Bromo-1-chloro-11-(piperazin-1-yl)-5H-dibenzo[b,e][1,4]diazepine], for which, in [1], the “M3 eff (efficacy)” value stood at 4. Besides, in series [2], the Emax was 66% and the EC50 was 126 nM. Also, in series [3], the Emax was found to be 105% and the EC50 is 2510 nM.

As for `Brc1ccc2c(c1)N=C(N1CCNCC1)c1ccccc1N2` [8-Bromo-11-(piperazin-1-yl)-5H-dibenzo[b,e][1,4]diazepine], in series [1], the “M3 eff (efficacy)” value was determined as 13. Besides, in [2], the Emax turned out to be 63% and the EC50 was 63.1 nM. In [3], the Emax was 121% and the EC50 was 501 nM.

In the case of `Brc1ccc2c(c1)N=C(N1CCNCC1)c1ccccc1O2` [8-Bromo-11-(piperazin-1-yl)-dibenzo[b,f][1,4]oxazepine], the results for the EC50 in series [4], in series [3] and in series [7] were 398 nM, 1260 nM and 50.1 nM, respectively. Moreover, the Emax in [4] was 36%; in series [3], 70%; in series [7], 34%. Also, the IC50 in series [6] was 25.1 nM.

As to `Cc1cccc2c1Nc1ccc(Cl)cc1N=C2N1CCNCC1` [8-Chloro-4-methyl-11-(piperazin-1-yl)-5H-dibenzo[b,e][1,4]diazepine], in series [1], the “M3 eff (efficacy)” value was 16. The Emax in [2] was found to be 92%; in series [3] it was 162%. Further, the values for the EC50 in [2] and in series [3] were 63.1 nM and 1000 nM, respectively.

Turning to `CC1CN(C2=Nc3cc(Cl)ccc3Nc3ccccc32)CCN1` (centres unmarked) [8-Chloro-11-(3-methyl-piperazin-1-yl)-5H-dibenzo[b,e][1,4]diazepine], the “M3 eff (efficacy)” value in [1] came out at 19. Further, in series [2], the Emax turned out to be 28% and the EC50 was 100 nM. For the same compound, in series [3], the Emax stood at 159% and the EC50 was 1580 nM.

For `Fc1ccc2c(c1)N=C(N1CCNCC1)c1ccccc1O2` [8-Fluoro-11-(piperazin-1-yl)-dibenzo[b,f][1,4]oxazepine], the EC50 in series [4] was 316 nM; in series [3], 2510 nM; in series [7], 15.8 nM. The results for the Emax in [4], in [3] and in series [7] were 39%, 48% and 73%, respectively. Further, the IC50 in series [6] was 501 nM.

In the case of `CN1CCN(C2=Nc3cc(Cl)ccc3Nc3ccccc32)CC1` [Clozapine, clozapine, reference compound], in [8], the “NOR - 60 minutes post training” value is listed as “not retained” and the “NOR - 120 minutes post training” value is on record as “not retained”. Besides, in series [8] (listed as clozapine), the “NOR - 60 minutes post training” value was “abolished novel object recognition” and the “NOR - 120 minutes post training” value is “cognitive impairing effects”. Also, in [5], the “MK-801 model (ID50 mg/kg po)” value is 0.6 mg/kg and the “MK-801 model (ID50 mg/kg sc)” value is 0.5 mg/kg. In [9], the “Amphetamine model (ID50 mg/kg po)” value is reported as 10 mg/kg and the “Amphetamine model (ID50 mg/kg sc)” value is 1.4 mg/kg.

`Clc1ccc2c(c1)N=C(N1CCNCC1)c1ccccc1N2` [N-desmethylclozapine, reference compound]: in series [8], the “NOR Interpretation” value is on record as “no effect”, the “NOR - 60 minutes post training” value was “retained” and the “NOR - 120 minutes post training” value is reported as “not retained”. In [5], the “MK-801 model (ID50 mg/kg po)” value is listed as 1.5 mg/kg and the “MK-801 model (ID50 mg/kg sc)” value was determined as 3.5 mg/kg. For the same compound, in series [10], the Ames result is “Neg”. Also, in series [9], the “Amphetamine model (ID50 mg/kg po)” value is over 10 mg/kg and the “Amphetamine model (ID50 mg/kg sc)” value was 5.2 mg/kg.

Consider `CCN(CC)CCNC1=Nc2cc(Cl)ccc2Nc2ccccc21` [N′-(8-Chloro-5H-dibenzo[b,e][1,4]diazepine-11-yl)-N,N-diethyl-ethane-1,2-diamine], for which the Emax in series [2] is 6%; in series [3], 9%.

In the case of `CN(C)CCNC1=Nc2cc(Cl)ccc2Nc2ccccc21` [N′-(8-Chloro-5H-dibenzo[b,e][1,4]diazepine-11-yl)-N,N-dimethyl-ethane-1,2-diamine], the Emax in [2] amounted to 4%; in series [3], 11%.

Consider `CNCCNC1=Nc2cc(Cl)ccc2Nc2ccccc21` [N′-(8-Chloro-5H-dibenzo[b,e][1,4]diazepine-11-yl)-N-methyl-ethane-12-diamine], for which the Emax in [2] was determined as 5%; in series [3] it was 8%.

In the case of `CN(C)CCNC1=Nc2cc(F)ccc2Nc2ccccc21` [N′-(8-Fluoro-5H-dibenzo[b,e][1,4]diazepine-11-yl)-N,N-dimethyl-ethane-1,2-diamine], the Emax in [2] was found to be 7%; in series [3] it was 21%.

For the origin of these results see US20090239840A1, “AMINO SUBSTITUTED DIARYL[a,d]CYCLOHEPTENE ANALOGS AS [sequence] AGONISTS AND METHODS OF TREATMENT OF NEUROPSYCHIATRIC DISORDERS” (ACADIA PHARMACEUTICALS, INC., priority 2003, published 2009).
